According to patent US20020132281A1, “Secretases related to alzheimer's dementia” (priority 1998, published 2002):
“Also recorded” adds a separate entry of the source. Square brackets hold non-standard residues; d marks the D form. Peptide text beside a SMILES is read from it. * marks the point of attachment. Sta = CC(C)C[C@H](N)[C@@H](O)CC(=O)O; Isovaleryl = CC(C)CC(=O)*

Assays:
[1] = tested on: β-secretase endoprotease activity in chromaffin vesicles; assay: Effect of reducing agent DTT on β-secretase endoprotease activity in chromaffin vesicle lysate; assay type: biochemical, bovine; settings: 1 mM DTT vs absence of DTT; lysed vesicles
Description: The β-secretase endoprotease activity was identified by incubating the chromaffin vesicle lysate (2-10 μl of 10-20 mg protein/ml) with the Z*Val-Lys-Met-MCA substrate (100 μM final concentration) and detecting AMC fluorescence. The chromaffin vesicle lysate was prepared as described in Example I. The endoprotease activity was determined as a function of pH by varying the pH of the incubation solution between 3.0 to 8.0 in 0.5 pH increments. Citric acid, sodium phosphate, and Tris-HCl buffers (100 mM final concentration) were used to adjust the pH of the incubation solutions between 3.0 to 5.5, 6.0 to 7.5, and 8.0, respectively. […]
As discussed above, endoprotease cleavage between the Met-MCA bond in the Z*Val-Lys-Met-MCA substrate produces fluorescent AMC, but endoprotease cleavage between the Lys-Met or Val-Lys bonds in that substrate produces non-fluorescent Lys-Met-MCA and Met-MCA peptides. To insure that the latter two endoprotease cleavages were detected, aminopeptidase M (20 μg/ml final concentration, BOEHRINGER […]) was added to each incubation solutions to produce fluorescent AMC from the Lys-Met-MCA and Met-MCA peptides. […]
The effect of the reducing agent dithiothreitol (DTT) on β-secretase endoprotease activity was determined using the assay described in Example III. […]

[2] = tested on: β-secretase endoprotease activity; assay: β-secretase endoprotease activity with/without DTT in fractions obtained during isolation of chromaffin vesicles; assay type: biochemical, bovine; settings: pH 5.5
Description: The effect of the reducing agent dithiothreitol (DTT) on β-secretase endoprotease activity was determined using the assay described in Example III. Briefly, the lysed vesicles were incubated with the substrate Z*Val-Lys-Met-MCA in the presence or absence of 1 mM DTT and the resulting fluorescence plotted as a function of pH. Both with and without DTT, β-secretase endoprotease activity was detected and in both cases that activity had pH optimum of about 4.0 to 6.0, which is consistent with the intravesicular pH of chromaffin vesicles.
The β-secretase endoprotease activity of fractions obtained during the isolation procedure described in Example I was determined at the pH optimum of 5.5, with and without DTT using the assay described in Example VII.

[3] = tested on: Peak I β-secretase endoprotease activity; assay: Protease inhibitors of β-secretase endoprotease activity in Peak I; assay type: biochemical, bovine; settings: for Peak I (%) of control: control (no inhibitor) = 100
Description: (§1) The protease inhibitor was added to each assay at the start of the reaction at the appropriate concentration. The extent of inhibition was expressed as a percentage of the activity without the inhibitor (control).
(§2) The contents of the eluted Con-A bound fraction were fractioned according to molecular size using a Sephacryl S200 column (Krieger, T. K. and Hook, V. Y. H. ibid.) .

[4] = tested on: Peak II β-secretase endoprotease activity; assay: Protease inhibitors of β-secretase endoprotease activity in Peak II; assay type: biochemical, bovine; settings: for Peak II (%) of control: control (no inhibitor) = 100
Description: as §1, §2

[5] = tested on: β-secretase endoprotease activity in chromaffin vesicle lysate; assay: Protease inhibitors of β-secretase endoprotease activity in chromaffin vesicle lysate (Z*Val-Lys-Met-MCA cleavage, with aminopeptidase M); assay type: biochemical, bovine; settings: for inhibition of β-secretase endoprotease activity in the lysate, in words: chromaffin vesicle lysate; for % CONTROL (β-secretase endoprotease activity): pH 5.5, with aminopeptidase M, activity as % of no-inhibitor control
Description: The β-secretase endoprotease activity was identified by incubating the chromaffin vesicle lysate (2-10 μl of 10-20 mg protein/ml) with the Z*Val-Lys-Met-MCA substrate (100 μM final concentration) and detecting AMC fluorescence. The chromaffin vesicle lysate was prepared as described in Example I. The endoprotease activity was determined as a function of pH by varying the pH of the incubation solution between 3.0 to 8.0 in 0.5 pH increments. Citric acid, sodium phosphate, and Tris-HCl buffers (100 mM final concentration) were used to adjust the pH of the incubation solutions between 3.0 to 5.5, 6.0 to 7.5, and 8.0, respectively. Duplicate samples at each pH increment (100 μl each) were distributed among 22 wells in a covered microtiter well plate and incubated at 37° C. for 8 hours in a water bath.
As discussed above, endoprotease cleavage between the Met-MCA bond in the Z*Val-Lys-Met-MCA substrate produces fluorescent AMC, but endoprotease cleavage between the Lys-Met or Val-Lys bonds in that substrate produces non-fluorescent Lys-Met-MCA and Met-MCA peptides. To insure that the latter two endoprotease cleavages were detected, aminopeptidase M (20 μg/ml final concentration, BOEHRINGER […]) was added to each incubation solutions to produce fluorescent AMC from the Lys-Met-MCA and Met-MCA peptides. Prior to adding the aminopeptidase M, each incubation solution was adjusted to a pH 8.3 using Tris-HCl because aminopeptidase M functions at a basic pH. A second incubation at 37° C. for 1 hour in the water bath was conducted to complete the aminopeptidase M reaction.
Upon termination of that second incubation, AMC fluorescence was assayed using a fluorometer (IDEXX fluorometer, FCA Fluorescence Concentration Analyzer, cat. no. 10-105-2, BAXTER HEALTH CARE CORP., Mundelein, Ill.) at excitation and emission wavelengths of 365 and 450 nm, respectively. Standard AMC concentrations were also measured to quantitate relative fluorescence with the molar amount (pmol) of AMC generated by the secretase. The resulting AMC fluorescence reflects the endoprotease activity in cleaving either the Met-MCA, Lys-Met. and Val-Lys bonds in the Z*Val-Lys-Met-MCA substrate.
The effect of the aminopeptidase M and the basic pH buffer used in the β-secretase endoprotease activity assay was determined. The assay was conducted as described in Example VIII with DTT. Three assays were conducted, one with aminopeptidase M in its basic pH buffer, another with the basic pH buffer but not aminopeptidase M, and a third without either the buffer or the aminopeptidase M. Briefly, the chromaffin vesicle lysate and the substrate Z*Val-Lys-Met-MCA were incubated for 30 minutes at a specified pH and the resulting fluorescence measured. The aminopeptidase M in the basic pH buffer or that buffer alone (final concentration of 75 mM Tris-HCl pH 8.2) was added to the assay and incubated an additional 60 minutes at 37° C. […] The assay conducted with aminopeptidase M and its basic pH buffer and that of the control assay having just the basic pH buffer produced approximately the same amount of fluorescence.
The effect of various protease inhibitors on β-secretase endoprotease activity in the lysate was determined at the pH optimum 5.5 in the assay described in Example IX containing aminopeptidase M. Protease inhibitors specific for various protease classes were used. The protease inhibitor was added to each assay at the start of the reaction at the appropriate concentration. The extent of inhibition was expressed as a percentage of the activity without the inhibitor (control). Triplicate assays varied by less than 10%.

[6] = tested on: chromaffin cells; assay: Aβ-peptide secretion by primary chromaffin cell cultures (RIA of Aβ1-40 in media); assay type: cell-based, bovine; settings: 15 minutes
Description: Primary chromaffin cell cultures containing approximately 2 million cells in each culture were produced using established methods (Hook et al., ibid.; and Tezapsidis et al., ibid.). Exocytosis of the contents of the vesicles in such cells was induced by exposing the cells to KCl (50 mM) or nicotine (10 μM) for 15 minutes.

Compound: O[C@H](CS)[C@H](O)CS (racemic) [DTT, dithiothreitol]
- increase in the β-secretase endoprotease activity [1]: approximately 5 fold
- RATIO of activities (with/without DTT) ([2]; Adrenal Medulla Homgenate): 4.7
- RATIO of activities (with/without DTT) ([2]; Pellet from 1st 8,800 rpm Centrifugation (crude vesicle fraction)): 3.2
- RATIO of activities (with/without DTT) ([2]; Pellet from 2nd 8,800 rpm Centrifugation (washed vesicle fraction)): 6.3
- RATIO of activities (with/without DTT) ([2]; Pellet from 1,500 rpm Centrifugation (nuclear fraction)): 11.6
- RATIO of activities (with/without DTT) ([2]; Pellet from 25,000 rpm Discontinuous Gradient Centrifugation (vesicle fraction)): 11.0

Compound: c1cnc2c(c1)ccc1cccnc12 [1,10 Phenanthroline]
- inhibition of Peak I activity, in words [3]: significantly inhibited
- Peak I (%) of control ([3]; inhibitor 500 μM): 31%
- inhibition of Peak II activity, in words [4]: only slightly inhibited
- Peak II (%) of control ([4]; inhibitor 500 μM): 72%

Compound: CC(C)C[C@H](NC(=O)[C@@H](NC(=O)N[C@@H](Cc1ccccc1)C(=O)O)[C@@H]1CCN=C(N)N1)C(=O)N[C@H](C=O)Cc1ccccc1 [Chymostatin]
- inhibition of β-secretase endoprotease activity in the lysate, in words [5]: greatly inhibited
- % CONTROL (β-secretase endoprotease activity) ([5]; inhibitor 10 μM): 11%
- inhibition of Peak I activity, in words [3]: maximally inhibited; also recorded: inhibited less than that of the lysate
- Peak I (%) of control ([3]; inhibitor 10 μM): 0%
- inhibition of Peak II activity, in words [4]: maximally inhibited; also recorded: inhibited less than that of the lysate
- Peak II (%) of control ([4]; inhibitor 10 μM): 35%

Compound: CC(C)CCNC(=O)[C@H](CC(C)C)NC(=O)[C@H]1O[C@@H]1C(=O)O [E64c]
- inhibition of β-secretase endoprotease activity in the lysate, in words [5]: completely inhibited
- % CONTROL (β-secretase endoprotease activity) ([5]; inhibitor 10 μM): 0%
- inhibition of Peak I activity, in words [3]: maximally inhibited; also recorded: completely inhibited
- Peak I (%) of control ([3]; inhibitor 10 μM): 0%
- inhibition of Peak II activity, in words [4]: maximally inhibited; also recorded: completely inhibited
- Peak II (%) of control ([4]; inhibitor 10 μM): 0%

Compound: O=C(O)CN(CCN(CC(=O)O)CC(=O)O)CC(=O)O [EDTA, ethylenediaminetetraacetic acid]
- % CONTROL (β-secretase endoprotease activity) ([5]; inhibitor 1 mM): 100%
- Peak I (%) of control ([3]; inhibitor 1 mM): 99%
- Peak II (%) of control ([4]; inhibitor 1 mM): 138%

Compound: O=C(O)CN(CCOCCOCCN(CC(=O)O)CC(=O)O)CC(=O)O [EGTA]
- % CONTROL (β-secretase endoprotease activity) ([5]; inhibitor 1 mM): 99%
- Peak I (%) of control ([3]; inhibitor 1 mM): 108%
- Peak II (%) of control ([4]; inhibitor 1 mM): 142%

Compound: [Cl-].[K+] [KCl, potassium chloride]
- increase in the concentration of Aβ1-40 peptide in the media relative to control media ([6]; KCl 50 mM): approximately 350 fold

Compound: CC(=O)N[C@@H](CC(C)C)C(=O)N[C@@H](CC(C)C)C(=O)N[C@H](C=O)CCCNC(=N)N [Leupeptin]
- inhibition of β-secretase endoprotease activity in the lysate, in words [5]: completely inhibited
- % CONTROL (β-secretase endoprotease activity) ([5]; inhibitor 100 μM): 0%
- inhibition of Peak I activity, in words [3]: maximally inhibited; also recorded: completely inhibited
- Peak I (%) of control ([3]; inhibitor 100 μM): 0%
- inhibition of Peak II activity, in words [4]: maximally inhibited; also recorded: completely inhibited
- Peak II (%) of control ([4]; inhibitor 100 μM): 0%

Compound: O=S(=O)(F)Cc1ccccc1 [PMSF, phenylmethylsulfonyl fluoride]
- inhibition of β-secretase endoprotease activity in the lysate, in words [5]: significantly inhibited
- % CONTROL (β-secretase endoprotease activity) ([5]; inhibitor 100 μM): 58%

Compound: CC(C)CC(=O)N[C@H](C(=O)N[C@H](C(=O)N[C@@H](CC(C)C)[C@@H](O)CC(=O)N[C@@H](C)C(=O)N[C@@H](CC(C)C)[C@@H](O)CC(=O)O)C(C)C)C(C)C [Pepstatin A] (Isovaleryl-VV[Sta]A[Sta]-OH)
- inhibition of β-secretase endoprotease activity in the lysate, in words [5]: slightly inhibited
- % CONTROL (β-secretase endoprotease activity) ([5]; inhibitor 10 μM): 78%
- inhibition of Peak I activity, in words [3]: did not significantly inhibit; also recorded: slightly inhibited
- Peak I (%) of control ([3]; inhibitor 100 μM): 85%
- inhibition of Peak II activity, in words [4]: did not significantly inhibit; also recorded: increased the activity
- Peak II (%) of control ([4]; inhibitor 100 μM): 132%

Compound: CN1CCCC1c1cccnc1 (centres unmarked) [nicotine]
- increase in the concentration of Aβ1-40 peptide in the media relative to control media ([6]; nicotine 10 μM): ~550 fold

Compound: O=C(O)c1cc[c]([Hg][OH])cc1 [pHMB]
- inhibition of β-secretase endoprotease activity in the lysate, in words [5]: greatly inhibited
- % CONTROL (β-secretase endoprotease activity) ([5]; inhibitor 1 mM): 35%
- inhibition of Peak I activity, in words [3]: slightly inhibited; also recorded: inhibited less than that of the lysate
- Peak I (%) of control ([3]; inhibitor 1 mM): 67%
- inhibition of Peak II activity, in words [4]: slightly inhibited; also recorded: inhibited less than that of the lysate
- Peak II (%) of control ([4]; inhibitor 1 mM): 68%
